Source: patent US20080051454A1, “Compositions and methods for transient receptor potential vanilloid (TRPV) channel mediated treatments” (The Board of Trustees Operating Michigan State University, priority 2006, published 2008)
Several values for one entry are separate records, joined by “and”; a condition that tells them apart may be missing. Identical values can stand only once.

Assays:
male Wistar rats [1] = assay: Depressor effect of 20-HETE analog DSR given IV, with or without antagonists; format: in vivo, rat
male Wistar rats [2] = assay: Plasma CGRP and substance P after i.v. DSR (radioimmunoassay); format: in vivo, rat; conditions: after DSR 1 mg/kg iv
[3] = tested on: Wistar rats fed a NS or HS diet for 3 weeks; assay: Plasma CGRP levels after MethA injection (radioimmunoassay); format: in vivo, rat; conditions: MethA 5 mg/kg
From the text: Fifteen minutes after injection, when the prolonged depressor phase approached to the lowest point, the rats were decapitated for collection of blood for plasma CGRP assay.
(§1) This antibody has 100% cross-reactivity with rat α-CGRP and 79% with rat β-CGRP. There is no cross-reactivity with rat amylin, calcitonin, somatostatin, or substance P.

mesenteric arteries [4] = assay: MethA-induced CGRP release from isolated mesenteric arteries (radioimmunoassay); set-up: species or system rat; conditions: arteries of NS-treated rats
Method: The arteries were dissected free of fat and connective tissues.
The preparations were incubated in a Krebs' solution of the following compositions (in mM): NaCl 119, NaHCO3 25, KH2PO4 1.2, MgSO4 1.5, CaCl2 2.5, KCl 4.7, and D-glucose 11. The Krebs' solution was maintained at 37 °C and gassed with 95% O2 and 5% CO2. After 1 h stabilization period, the arteries were transferred to another chamber containing 1 ml of Krebs' solution with the addition of 0.05% BSA and drugs. […] The tissues were removed after 20 min incubation, and the solutions were collected. At the end of the experiment, the tissues were blotted and weighted.
as §1

[5] = tested on: Wistar rats fed a normal-salt (NS) or high-salt (HS) diet for 10 days; assay: MAP and HR responses to i.v. bolus NADA with or without antagonists in conscious rats; format: in vivo, rat; conditions: for decrease in mean arterial pressure (depressor effect): NADA iv (1, 4, 10 mg/kg; dose of this value not stated); for prolonged depressor effect of NADA (decrease in MAP) after antagonist: NADA 4 mg/kg after CAPZ 3 mg/kg, CGRP8-37 infusion or SR141716A 3 mg/kg
From the text: In brief: Wistar rats were fed a normal (NS, 0.4%) or high (HS, 4%) sodium diet for 10 days, then artery and vein were cannulated for measurement of mean arterial pressure (MAP) or for injection of drugs and collection of plasma.
Animal Preparation: Male Wistar rats (7 weeks old, Charles River Laboratory, Wilmington, Mass.) were housed in the animal facility for 1 week before the experiment. Rats were grouped randomly and pair-fed a NS (0.4% of Na^+ by weight) or HS (4% of Na^+ by weight) diet for 10 days. The rat chow was purchased from Harlan Teklad Diets (Madison, Wis.). Drinking water was available ad libitum throughout the experiment. All protocols were in accordance with the National Institutes of Health Guidelines for the Care and Use of Laboratory Animals.
Surgical Preparation Rats were anesthetized with ketamine and xylazine (80 and 4 mg/kg intraperitoneally, respectively) for cannulation or with urethane (1.5 g/kg intraperitoneally) for capsaicin administration. The left jugular vein, carotid and femoral artery were cannulated under anesthesia for injection of drugs or monitoring of mean arterial pressure (MAP) and heart rate (HR).
Three hours after surgery, baseline MAP and its response to the above-mentioned drugs were obtained with the rats fully awake and unrestrained [Wang et al., Am J Physiol 2004; 287:H1868-H[874]. NADA was injected in increasing doses (1, 4, and 10 mg/kg intravenous bolus) in 3 subgroups of rats (each group for each dose). To determine the role of TRPV1 and CB 1 receptor in NADA-induced hypotension, NADA (4 mg/kg) was injected 10 minutes or 20 minutes after intravenous injection of CAPZ (3 mg/kg) or SR141716A (3 mg/kg), respectively.
To examine the effect of CGRP8-37 on NADA-induced hypotension, CGRP8-37 was intravenously administered at the rate of 1 mg/kg/min for 2 minutes followed by injection at the rate of 0.5 mg/kg/min for 15 minutes. NADA (4 mg/kg) was injected 1 minute after CGRPs-37 administration. The effectiveness of the dose and time frame for CGRP8-37 injection was verified by blockade of the hypotensive response to capsaicin (30 μg/kg) (n=5).

mesenteric arteries [6] = assay: NADA-induced CGRP release from isolated mesenteric arteries (radioimmunoassay); set-up: species or system rat
Method: After an 1 h stabilization period, the arteries were transferred to another chamber containing 1 ml of Krebs's solution with the addition of 0.05% BSA and drugs including NADA (1 or 10 μM) or CAPZ (10 μM). The tissues were removed after 20 min incubation, and the solutions were collected and evaporated. […] At the end of the experiment, the tissues were blotted and weighted. […] The results are expressed as pg of milligram of tissues.
(§2) This antibody has 100% cross-reactivity with rat a-CGRP and 79% with β-CGRP. There is no cross-reactivity with rat amylin, calcitonin, somatostatin, or substance P. The assay was performed following the manufacturer's protocol.

[7] = tested on: Wistar rats fed a NS or HS diet for 10 days; assay: Plasma CGRP levels after NADA injection (radioimmunoassay); format: in vivo, rat; conditions: NADA 4 mg/kg
Method: Eight minutes after injection, when the depressor phase approached to the lowest point, the rats were sacrificed for collection of blood for plasma CGRP assay.
as §2

Wistar rats fed HS diet = assay: Blood pressure after i.v. SR141716A or CAPZ in conscious rats fed HS diet (Example I); format: in vivo, rat; conditions: 3 mg/kg iv
Method: Experiments were approved by the Institutional Animals Care and Use Committee. Experiments were performed using male Wistar rats (Charles River Laboratory, Wilmington, Mass.). Rats (6 weeks old) were housed in the animal facility for 1 week before the experiments. Rats were then randomly assigned to a normal-sodium (NS) diet (0.4% of Na+ by weight, Harlan Teklad) or HS (4% of Na+ by weight; Harlan Teklad) for 3 weeks. Rats drank water ad libitum throughout the experiment.
Surgical Preparation and MAP measurements: The rats were anesthetized with ketamine and xylazine (80 and 4 mg/kg intraperitoneally, respectively) for implantation of vascular catheters or with urethane ([…] intraperitoneally) throughout protocol 2. […]
Protocol 1: Rats fed a NS or HS diet were randomly assigned to 5 groups for intravenous injection of vehicle or MethA alone or in combination with SR141716A (a CB1 receptor antagonist), CAPZ (a VR1 receptor antagonist), or the combination of the 2 (n=5 to 8). Baseline MAP and its response to the aforementioned drugs were determined 3 hours after surgery when animals were fully awake and unrestrained as described previously. […]

O=C(O)CCC/C=C\CCCCCCC/C=C\CCCCO [DSR]
decrease in mean arterial pressure (male Wistar rats [1]; DSR 1 mg/kg IV alone): 22.1±2.3 mmHg
depressor effect among the analogs tested in vivo (male Wistar rats [1]; rat, in vivo): most potent
plasma CGRP levels (male Wistar rats [2]): 273.4 ± 23.6 pg/mL
plasma SP levels (male Wistar rats [2]): 14.5 ± 1.6 pg/mL

CCCCC/C=C\C/C=C\C/C=C\C/C=C\CCCC(=O)N[C@H](C)CO [MethA, methanandamide]
plasma CGRP levels ([3]; HS): 78.1 ± 8.5 pg/mL
plasma CGRP levels ([3]; NS): 50.4 ± 5.9 pg/mL
CGRP release (mesenteric arteries [4]; MethA 0.1 μM): 4.81±0.75 pg/mg tissue
CGRP release (mesenteric arteries [4]; MethA 10 μM): 14.89±2.36 pg/mg tissue

CCCCC/C=C\C/C=C\C/C=C\C/C=C\CCCC(=O)NCCc1ccc(O)c(O)c1 [NADA, N-arachidonoyl dopamine]
peak decrease in MAP ([5]; NADA 1 mg/kg iv, HS diet): 6±2 mmHg
peak decrease in MAP ([5]; NADA 1 mg/kg iv, NS diet): 7±3 mmHg
peak decrease in MAP ([5]; NADA 4 mg/kg iv, HS diet): 22±3 mmHg
peak decrease in MAP ([5]; NADA 4 mg/kg iv, NS diet): 14±2 mmHg
peak decrease in MAP ([5]; NADA 10 mg/kg iv, HS diet): 33±5 mmHg
peak decrease in MAP ([5]; NADA 10 mg/kg iv, NS diet): 24±4 mmHg
decrease in mean arterial pressure (depressor effect) ([5]; HS diet): 16±3 mmHg
decrease in mean arterial pressure (depressor effect) ([5]; NS diet): 8±2 mmHg
HR during depressor effect ([5]; after NADA iv): pronounced increase
duration of prolonged depressor activity ([5]; after NADA iv): approximately 20 minutes
time of peak of prolonged depressor activity after administration ([5]; after NADA iv): 7 to 9 min
CGRP release (mesenteric arteries [6]; NADA 1 μM, arteries of HS-treated rats): 9.16±0.68 pg/mg tissue
CGRP release (mesenteric arteries [6]; NADA 1 μM, arteries of NS-treated rats): 6.43±0.58 pg/mg tissue
CGRP release (mesenteric arteries [6]; NADA 10 μM, arteries of HS-treated rats): 19.00±1.56 pg/mg tissue
CGRP release (mesenteric arteries [6]; NADA 10 μM, arteries of NS-treated rats): 13.07±0.91 pg/mg tissue
plasma CGRP levels ([7]; HS): 84.2 ± 7.2 pg/mL and 87.7 ± 5.6 pg/mL
plasma CGRP levels ([7]; NS): 55.3 ± 4.6 pg/mL and 60.6 ± 5.1 pg/mL

Cc1c(C(=O)NN2CCCCC2)nn(-c2ccc(Cl)cc2Cl)c1-c1ccc(Cl)cc1 [SR141716A]
prolonged depressor effect of NADA (decrease in MAP) after antagonist ([5]; HS diet): 19±4 mmHg
prolonged depressor effect of NADA (decrease in MAP) after antagonist ([5]; NS diet): 12±3 mmHg
effect on initial transient hypotensive and brief pressor phases of NADA ([5]; NADA 4 mg/kg, NS and HS): did not affect
duration of transient elevation in blood pressure after injection (Wistar rats fed HS diet): no more than 15 minutes
